# According to patent US6172099A, “Tricyclic compounds having saturated rings and medicinal compositions containing the same” (Asahi Kasei Kogyo Kabushiki Kaisha, priority 1997, dated 2001):
# Where a name gives a salt, the structure may show the parent alone. Read-outs that look alike come from different tables or passages of the source.
# Legend:
# [1] = Lipolytic effect in mice (serum free fatty acid); assay type: in vivo, male ddy mice; conditions: intraperitoneal, 10 mg/kg; 1 hour
# Procedure: Blood Glucose Lowering Effect and Lipolytic Effect Glucose was subcutaneously administered to male ddy mice (supplied from the dirm Nippon Charles Liver) of 6 weeks age at a dose of 2 g/kg. […] After one hour, blood sample was taken from abdominal aorta, serum was separated and served as the sample. Lipolytic Effect: Amount of free fatty acid in the samples was determined using NEFA HA TEST WAKO (of the firm Wako Pure Chemical). […] Therefore, it was shown that they are useful for preventive and therapeutic treatment of hyperlipemia and obesity.
# [2] = Blood glucose lowering effect in glucose-loaded mice; assay type: in vivo, male ddy mice; conditions: intraperitoneal, 10 mg/kg; 1 hour; glucose load 2 g/kg s.c.
# Procedure: Blood Glucose Lowering Effect and Lipolytic Effect
# Glucose was subcutaneously administered to male ddy mice (supplied from the dirm Nippon Charles Liver) of 6 weeks age at a dose of 2 g/kg. The animals were also treated with either one of test compounds via oral or intraperitoneal administration at a dose of 0.1 ml per 10 g of body weight. After one hour, blood sample was taken from abdominal aorta, serum was separated and served as the sample.
# Blood Glucose Lowering Effect:
# The samples prepared as above were analyzed for the serum glucose concentration by Auto analyzer (SUPER Z of the firm M. C. Medical). For the analyzer kit, Glucose 11 HA TEST WAKO (of the firm Wako Pure Chemical) was used.
# % decrease in blood glucose=[(A-B)/(A-C)]×100
# in whcih A represents the glucose concentration after loading glucose, B represents the glucose concentration after administration of the compound and C is the usual level of the glucose concentration.
# rat adipocytes = assay: Lipolytic activity in rat adipocytes (glycerol concentration); assay type: cell-based; conditions: Adipocyte; for EC50: rat adipocytes, glycerol release, 37° C., 1 hour, read-out: ED50 (the source's name); for Emax: Rattus norvegicus, 1 h, read-out: Intrinsic activity(%)
# Procedure: Lipolytic Activity in Rat Adipocytes Adipose tissues were collected from epididymis and minced. Krebs-Ringer buffer solution containing 1 mg/ml Collagenase (Sigma) and 1% of bovine serum albumin was added in an amount of 3 ml per one gram of the tissue. These cells were then incubated at 37° C. for 30 minutes with shaking and then undigested tissues were removed with a nylon filter. The resulting adipocytes were washed four times with Krebs-Ringer buffer, and then cells was diluted to 2×10^5 cells/ml with Krebs-Ringer buffer solution containing 4% of bovine serum albumin. These cells were transferred to Eppendorf tubes each in an amount of 300 μl. Each 300 μl of a culture medium containing the test compounds was added to these tubes and was held at 37° C. for 1 hour with shaking. Stimulation was stopped by cooling with ice. After centrifugation, the adipocytes were taken off with an aspirator, and then the concentration of glycerol was determined using F-KIT GLYCEROL (Behringer-Manheim).
# human β3 = biological target: T1, human β3 (Homo sapiens, UniProt P13945); assay: Human β3-agonist activity (cAMP accumulation in CHO cells transfected with human β3 gene); assay type: cell-based
# T1 construct: inserted the 1st exon of human β3 gene was transfected; expressed in transfected cells; host or cells: CHO cells (Chinese hamster ovary), pcDNA3 vector
# T1 sequence (P13945 1-402 limits assumed): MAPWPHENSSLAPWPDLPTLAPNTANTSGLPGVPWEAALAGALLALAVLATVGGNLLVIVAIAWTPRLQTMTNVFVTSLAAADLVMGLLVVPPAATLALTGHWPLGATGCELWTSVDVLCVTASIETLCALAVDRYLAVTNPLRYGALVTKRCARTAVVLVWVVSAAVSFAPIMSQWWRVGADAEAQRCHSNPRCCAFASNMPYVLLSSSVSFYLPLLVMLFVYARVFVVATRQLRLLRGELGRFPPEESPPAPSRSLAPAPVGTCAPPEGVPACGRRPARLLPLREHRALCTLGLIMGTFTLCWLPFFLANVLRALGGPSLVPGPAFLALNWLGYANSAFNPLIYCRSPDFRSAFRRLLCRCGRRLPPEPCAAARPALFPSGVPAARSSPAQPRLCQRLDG
# Procedure: Human β3-agonist Activity Human β3-agonist activity was examined using CHO cells (chinese hamster ovarian cells) to which pcDNA3 (in vitrogen) inserted the 1st exon of human β3 gene was transfected. Human β3 fragment was obtained by PCR using human fat tissue cDNA (supplied from Clontech) with a […] [Krief et al, J. Clin. Invest., Vol. 91, p344-349 (1993)]. And then full length of human […] was cloned using this fragment as a probe.
# The cells were cultured in a HAM F-12 medium containing 10% of fetal bovine serum, 400 μg/ml of Geneticin (Gibco BRL), 100 U/ml penicillin and 100 μg/ml streptomycin. 5×10^5 cells were placed on a 6-well plate and cultured for 24 hours, after which the medium was changed to a HAM F-12 medium without serum and was kept for 2 hours. Each test compound was first dissolved in DMSO, and then diluted with a HAM F-12 medium containing 1 mM isobutylmethyl xanthine and 1 mM ascorbic acid. A 10-fold dilution in the range of 10^-5 to 10^-12 M was added into the cells.
# After culturing for 30 minutes, culture medium was withdrawn, 0.5 ml of 1 N NaOH was added and was kept for 20 minutes. Ater then 0.5 ml of 1 N acetic acid was added with subsequent agitation and centrifugation. Finally, concentration of cAMP were analyzed using cAMP EIA KIT (Cayman). […] CL316,243 was synthesized by the method given in J. Med. Chem., Vol. 35, p3081-3084 (1992).
# [3] = design: species or system male ddy mice; conditions: mouse, in vivo, po, 100 mg/kg
# Procedure: The compounds of Example 2 was orally administered to 6 weeks age male ddy mice (supplied from the firm Nippon Chrles Liver) at a dose of 100 mg/kg.
# [4] = CHO cells expressing human β3, cAMP, 30 minutes; read-out: ED50 (the source's name)
# [5] = CHO, read-out: Intrinsic activity(%)
SMILES,increase of free fatty acid concentration [1],reduction of blood glucose [2],EC50 (rat adipocytes),Emax (rat adipocytes),EC50 (human β3; [4]),Emax (human β3; [5]),fatal cases [3],Emax (human β3; CHO; read-out: Intrinsic activity(%))
"CN(C)S(=O)(=O)Nc1cc([C@@H](O)CNCCOc2ccc3c4c([nH]c3c2)CCCC4)ccc1O.Cl [Example 2, (R)-N'-[5-[2-[2-(5,6,7,8-tetrahydro-9H-carbazol-2-yloxy)ethylamino]-1-hydroxyethyl]-2-hydroxyphenyl]-N,N-dimethylsulfamide hydrochloride]",showed an increase of free fatty acid concentration,showed a reduction of blood glucose,2000 nM,127%,0.26 nM,63%,no fatal case was found,–
"C[C@H](Cc1ccc(OCC(=O)O)cc1)NC[C@H](O)c1cccc(Cl)c1 [BRL37344, reference compound]",–,–,–,–,–,–,–,29%
"CS(=O)(=O)Nc1cc([C@@H](O)CNCCOc2ccc3c4c([nH]c3c2)CCCC4)ccc1Br [Example 15, (R)-N-[5-[2-[2-(5,6,7,8-tetrahydro-9H-carbazol-2-yloxy)ethylamino]-1-hydroxyethyl]-2-bromophenyl]methanesulfonamide hydrochloride]",–,–,–,–,40 nM,72%,–,–
"CC(C)NCC(O)c1ccc(O)c(O)c1 (stereo not shown) [isoproterenol, reference compound]",–,–,92 nM,100%,–,–,–,–
"CS(=O)(=O)Nc1cc([C@@H](O)CNCCOc2ccc3c4c([nH]c3c2)CCCC4)ccc1OCc1ccccc1 [Example 5, (R)-N-[5-[2-[2-(5,6,7,8-tetrahydro-9H-carbazol-2-yloxy)ethylamino]-1-hydroxyethyl]-2-benzyloxyphenyl]methanesulfonamide hydrochloride]",–,–,–,–,570 nM,101%,–,–
"CS(=O)(=O)Nc1cccc(C(O)CNCCOc2ccc3c4c([nH]c3c2)CCCC4)c1 (racemic) [Example 17, (±)-N-[3-[2-[2-(5,6,7,8-tetrahydro-9H-carbazol-2-yloxy)ethylamino]-1-hydroxyethyl]phenyl]methanesulfonamide hydrochloride]",–,–,–,–,92 nM,78%,–,–
"CN(C)S(=O)(=O)Nc1cc([C@@H](O)CNCCOc2ccc3c4c(oc3c2)CCCC4)ccc1O [Example 22, (R)-N'-[5-[2-[2-(6,7,8,9-tetrahydrodibenzofuran-3-yloxy)ethylamino]-1-hydroxyethyl]-2-hydroxyphenyl]-N,N-dimethylsulfamide hydrochloride]",–,–,–,–,27 nM,84%,–,–
"CS(=O)(=O)Nc1cc([C@@H](O)CNCCOc2ccc3c4c([nH]c3c2)CCCC4)ccc1O [Example 6, (R)-N-[5-[2-[2-(5,6,7,8-tetrahydro-9H-carbazol-2-yloxy)ethylamino]-1-hydroxyethyl]-2-hydroxyphenyl]methanesulfonamide hydrochloride]",–,–,200 nM,132%,0.021 nM,84%,–,–
"CS(=O)(=O)Nc1cc([C@@H](O)CNCCOc2ccc3c4c([nH]c3c2)CCCC4)ccc1F [Example 9, (R)-N-[5-[2-[2-(5,6,7,8-tetrahydro-9H-carbazol-2-yloxy)ethylamino]-1-hydroxyethyl]-2-fluorophenyl]methanesulfonamide hydrochloride]",–,–,–,–,29 nM,47%,–,–
"CS(=O)(=O)Nc1cc([C@@H](O)CNCCOc2ccc3c4c(sc3c2)CCCC4)ccc1O [Example 28, (R)-N-[5-[2-[2-(6,7,8,9-tetrahydrodibenzothiophen-3-yloxy)ethylamino]-1-hydroxyethyl]-2-hydroxyphenyl]methanesulfonamide hydrochloride]",–,–,400 nM,140%,0.11 nM,96%,–,–
"CS(=O)(=O)Nc1cc(C(O)CNCCOc2ccc3c4c([nH]c3c2)CCCC4)ccc1Cl (racemic) [Example 14, (±)-N-[5-[2-[2-(5,6,7,8-tetrahydro-9H-carbazol-2-yloxy)ethylamino]-1-hydroxyethyl]-2-chlorophenyl]methanesulfonamide hydrochloride]",–,–,–,–,25 nM,62%,–,–
"CS(=O)(=O)Nc1cc([C@@H](O)CNCCOc2ccc3c4c(oc3c2)CCCC4)ccc1O [Example 26, (R)-N-[5-[2-[2-(6,7,8,9-tetrahydrodibenzofuran-3-yloxy)ethylamino]-1-hydroxyethyl]-2-hydroxyphenyl]methanesulfonamide hydrochloride]",–,–,39 nM,118%,31 nM,111%,–,–
